In patent US10654816B2, “Compounds and compositions for treating conditions associated with NLRP activity” (NOVARTIS INFLAMMASOME RESEARCH, INC., priority 2017, dated 2020) one finds IC50 data, which are given here for 23 compounds.

Bounds are passed on as bounds.

For the first experiment, the system named is IL-1β production in PMA-differentiated THP-1 cells. In words: IL-1β production in PMA-differentiated THP-1 cells stimulated with gramicidin (hTHP-1 assay, HTRF readout; Procedures 1-3). The class given is cell-based, human. As to conditions: Homo sapiens, THP-1, hTHP-1 assay containing 2% fetal bovine serum; average; class symbols; read-out: hTHP-1 IC50 (Average IC50 of compounds in hTHP-1 assay). The protocol:
The Following Protocol is Suitable for Testing the Activity of the Compounds Disclosed Herein. Procedure 1: IL-1B Production in PMA-Differentiated THP-1 Cells Stimulated with Gramicidin.
THP-1 cells were purchased from the American Type Culture Collection and sub-cultured according to instructions from the supplier. Cells were cultured in complete RPMI 1640 (containing 10% heat inactivated FBS, penicillin (100 units/ml) and streptomycin (100 μg/ml)), and maintained in log phase prior to experimental setup. Prior to the experiment, compounds were dissolved in dimethyl sulfoxide (DMSO) to generate a 30 mM stock. The compound stock was first pre-diluted in DMSO to 3, 0.34, 0.042 and 0.0083 mM intermediate concentrations and subsequently spotted using Echo550 liquid handler into an empty 384-well assay plate to achieve desired final concentration (e.g. 100, 33, 11, 3.7, 1.2, 0.41, 0.14, 0.046, 0.015, 0.0051, 0.0017 μM). DMSO was backfilled in the plate to achieve a final DMSO assay concentration of 0.37%. The plate was then sealed and stored at room temperature until required.
THP-1 cells were treated with PMA (Phorbol 12-myristate 13-acetate) (20 ng/ml) for 16-18 hours. On the day of the experiment the media was removed and adherent cells were detached with trypsin for 5 minutes. Cells were then harvested, washed with complete RPMI 1640, spun down, and resuspended in RPMI 1640 (containing 2% heat inactivated FBS, penicillin (100 units/ml) and streptomycin (100 μg/ml). The cells were plated in the 384-well assay plate containing the spotted compounds at a density of 50,000 cells/well (final assay volume 50 μl). Cells were incubated with compounds for 1 hour and then stimulated with gramicidin (5 μM) (Enzo) for 2 hours. Plates were then centrifuged at 340 g for 5 min. Cell free supernatant (40 μL) was collected using a 96-channel PlateMaster (Gilson) and the production of IL-1β was evaluated by HTRF (cisbio). The plates were incubated for 18 h at 4° C. and read using the preset HTRF program (donor emission at 620 nm, acceptor emission at 668 nm) of the SpectraMax i3x spectrophotometer (Molecular Devices, software SoftMax 6). A vehicle only control and a dose titration of CRID3 (100-0.0017 μM) were run concurrently with each experiment.
Procedure 2: IL-1β Production in PMA-Differentiated THP-1 Cells Stimulated with Gramicidin.
THP-1 cells were purchased from the American Type Culture Collection and sub-cultured according to instructions from the supplier. Prior to experiments, cells were cultured in complete RPMI 1640 (containing 10% heat inactivated FBS, penicillin (100 units/ml) and streptomycin (100 μg/ml)), and maintained in log phase prior to experimental setup. Prior to the experiment THP-1 were treated with PMA (Phorbol 12-myristate 13-acetate) (20 ng/ml) for 16-18 hours. Compounds were dissolved in dimethyl sulfoxide (DMSO) to generate a 30 mM stock.
On the day of the experiment the media was removed and adherent cells were detached with trypsin for 5 minutes. Cells were then harvested, washed with complete RPMI 1640, spun down, resuspended in RPMI 1640 (containing 2% heat inactivated FBS, penicillin (100 units/ml) and streptomycin (100 μg/ml). The cells were plated in a 384-well plate at a density of 50,000 cells/well (final assay volume 50 μl). Compounds were first dissolved in assay medium to obtain a 5× top concentration of 500 μM. 10 step dilutions (1:3) were then undertaken in assay medium containing 1.67% DMSO. 5× compound solutions were added to the culture medium to achieve desired final concentration (e.g. 100, 33, 11, 3.7, 1.2, 0.41, 0.14, 0.046, 0.015, 0.0051, 0.0017 μM). Final DMSO concentration was at 0.37%. Cells were incubated with compounds for 1 hour and then stimulated with gramicidin (5 μM) (Enzo) for 2 hours. Plates were then centrifuged at 340 g for 5 min. Cell free supernatant (40 μL) was collected using a 96-channel PlateMaster (Gilson) and the production of IL-1β was evaluated by HTRF (cisbio). […]
For orientation: Time-resolved FRET reads energy transfer from a long-lived donor to a nearby acceptor.
Usually IC50 stands for the point on the concentration scale where inhibition reaches its midpoint. With `CC(C)(O)c1ncc(S(N)(=O)=NC(=O)Nc2c3c(cc4c2C(O)CC4)CCC3)s1` (single isomer, unassigned) [Example 370, (R, R/S) or (S, R/S)-N′-((3-hydroxy-1,2,3,5,6,7-hexahydro-s-indacen-4-yl)carbamoyl)-2-(2-hydroxypropan-2-yl)thiazole-5-sulfonimidamide], the IC50 was 0.2 to 1 µM.
For `CCc1cc(OC(F)F)cc(C(C)C)c1NC(=O)N=S(N)(=O)c1cnc(C(C)(C)O)s1` (centres unmarked) [Example 18, N′-(4-(difluoromethoxy)-2-ethyl-6-isopropylphenylcarbamoyl)-2-(2-hydroxypropan-2-yl)thiazole-5-sulfonimidamide], the 50% inhibitory concentration (IC50) lay in the range of 0.2 to 1 µM.
On the same count and under the same terms, the value for `CC(C)c1cc(F)cc(C(C)C)c1NC(=O)N=S(N)(=O)c1ccc(C(C)(C)O)cc1` (centres unmarked) [Example 11, N′-(4-fluoro-2,6-diisopropylphenylcarbamoyl)-4-(2-hydroxypropan-2-yl)benzenesulfonimidamide] was 5 to 30 µM; that for `CC(C)c1cc(C#N)cc(C(C)C)c1NC(=O)N=S(N)(=O)c1ncc(C(C)(C)O)s1` (centres unmarked) [Example 35, N′-(4-cyano-2,6-diisopropylphenylcarbamoyl)-5-(2-hydroxypropan-2-yl)thiazole-2-sulfonimidamide] was 0.2 to 1 µM; that for `Cc1ccc(S(N)(=O)=NC(=O)Nc2c(C(C)C)cc(F)cc2C(C)C)nc1` (centres unmarked) [Example 220, N′-((4-fluoro-2,6-diisopropylphenyl)carbamoyl)-5-methylpyridine-2-sulfonimidamide] was 5 to 30 µM.
Same read-out and setting: the value for `CCc1ccc2cnn(C)c2c1NC(=O)N=S(N)(=O)c1ncc(C(C)(C)O)s1` (single isomer, unassigned) [Example 328, (R) or (S)-N′-((6-ethyl-1-methyl-1H-indazol-7-yl)carbamoyl)-5-(2-hydroxypropan-2-yl)thiazole-2-sulfonimidamide] was 1 to 5 µM.
Same read-out and setting: the value for `CC(C)c1cc(OC(F)F)cc(C2CC2)c1NC(=O)N=S(N)(=O)c1ccc(CN(C)C)cc1` (single isomer, unassigned) [Example 135, (R)- or (S)-N′-(2-cyclopropyl-4-(difluoromethoxy)-6-isopropylphenylcarbamoyl)-4-((dimethylamino)methyl)benzenesulfonimidamide] was 1 to 5 µM; that for `CNS(=O)(=NC(=O)Nc1c2c(cc3c1CCC3)CCC2)c1cc(C(C)(C)O)cs1` (centres unmarked) [Example 246] was 5 to 30 µM.
Consider `CC(=O)N(C)Cc1ccc(S(N)(=O)=NC(=O)Nc2c3c(cc4c2CCC4)CCC3)cc1` (single isomer, unassigned) [Example 366, (R) or (S)-N-(4-(N′-((1,2,3,5,6,7-hexahydro-s-indacen-4-yl)carbamoyl)sulfamid-imidoyl)benzyl)-N-methylacetamide], for which the IC50 was 1 to 5 µM.
Still for that read-out and setting: the value for `CC(C)c1cc(F)cc(C(C)C)c1NC(=O)N=S(N)(=O)c1cccnc1` (centres unmarked) [Example 215, N′-((4-fluoro-2,6-diisopropylphenyl)carbamoyl)pyridine-3-sulfonimidamide] was 5 to 30 µM; that for `Cc1oc([S@](N)(=O)=NC(=O)Nc2c3c(cc4c2CCC4)CCC3)cc1C(C)(C)O` (single isomer, unassigned) [Example 3] was 0.2 to 1 µM; that for `COCc1ccc(S(N)(=O)=NC(=O)Nc2c3c(cc4c2CCC4)CCC3)cc1` (centres unmarked) [Example 242, N′-(1,2,3,5,6,7-hexahydro-s-indacen-4-ylcarbamoyl)-4-(methoxymethyl)benzenesulfonimidamide] was 1 to 5 µM.
Still for that read-out and setting: the value for `Cc1cc(S(N)(=O)=NC(=O)Nc2c(C(C)C)cc(F)cc2C(C)C)c(C)o1` (centres unmarked) [Example 217, N′-((4-fluoro-2,6-diisopropylphenyl)carbamoyl)-2,5-dimethylfuran-3-sulfonimidamide] was 5 to 30 µM; that for `COCCN(C)Cc1ccc(S(N)(=O)=NC(=O)Nc2c3c(cc4c2CCC4)CCC3)cc1` (centres unmarked) [Example 232, N′-(1,2,3,5,6,7-hexahydro-s-indacen-4-ylcarbamoyl)-4-(((2-methoxyethyl)(methyl)amino)meth-yl)benzenesulfonimidamide] was 1 to 5 µM.
In the case of `NS(=O)(=NC(=O)Nc1c2c(cc3c1CCC3)CCC2)c1ccc(CN2CCC2)cc1` (centres unmarked) [Example 237, 4-(Azetidin-1-ylmethyl)-N′-(1,2,3,5,6,7-hexahydro-s-indacen-4-ylcarbamoyl)benzenesulfonimidamide], the half-maximal inhibitory concentration (IC50) lay in the range of 1 to 5 µM.
Regarding `Cc1ccc(-c2ccc(NC(=O)N=S(N)(=O)c3ncc(C(C)(C)O)s3)c3c2CCC3)cc1C` (centres unmarked) [Example 426, 1-{Amino[5-(2-hydroxypropan-2-yl)-1,3-thiazol-2-yl]oxo-λ^6-sulfanylidene}-3-[7-(3,4-dimethylphenyl)-2,3-dihydro-1H-inden-4-yl]urea], the concentration for half-maximal inhibition (IC50) was in the range of 5 to 30 µM.
For `CC(C)(O)c1ncc(S(N)(=O)=NC(=O)Nc2c3c(c(OC(F)F)c4c2CCC4)CCC3)s1` (centres unmarked) [Example 27, N′-(8-(difluoromethoxy)-1,2,3,5,6,7-hexahydro-s-indacen-4-ylcarbainoyl)-2-(2-hydroxypropan-2-yl)thiazole-5-sulfonimidamide], the half-inhibitory concentration (IC50) fell in the range of 0.2 to 1 µM.

The same experiment, now with this note: Homo sapiens, THP-1, hTHP-1 assay containing 2% fetal bovine serum; average; given as bound; read-out: hTHP-1 IC50 (Average IC50 of compounds in hTHP-1 assay).
Turning to `Cc1cc(C(C)(C)O)ccc1S(N)(=O)=NC(=O)Nc1c(C(C)C)cc(OC(F)F)cc1C1CC1` (single isomer, unassigned) [Example 120, (R)- or (S)-N′-(2-cyclopropyl-4-(difluoromethoxy)-6-isopropylphenylcar-bamoyl)-4-(2-hydroxypropan-2-yl)-2-methylbenzenesulfonimidamidc], the IC50 is more than 30 µM.
Still for that read-out and setting: to `CC(C)c1ccc(S(N)(=O)=NC(=O)Nc2c3c(cc4c2CCC4)CCC3)cn1` (single isomer, unassigned) [Example 401, (R) or (S)-N′-((1,2,3,5,6,7-hexahydro-s-indacen-4-yl)carbamoyl)-6-isopropylpyridine-3-sulfonimidamide] belongs more than 30 µM; to `CC(C)Cc1ccc(S(N)(=O)=NC(=O)Nc2c3c(cc4c2CCC4)CCC3)cc1` (centres unmarked) [Example 277, N′-(1,2,3,5,6,7-hexahydro-s-indacen-4-ylcarbamoyl)-4-isobutylbenzenesulfonimidamide], more than 30 µM; to `CN(Cc1ccc(S(N)(=O)=NC(=O)Nc2c3c(cc4c2CCC4)CCC3)cc1)C(=O)CCC(=O)O` (centres unmarked) [Example 252], more than 30 µM.

Staying with this experiment, now noted: hTHP-1 assay containing 2% fetal bovine serum; average; class symbols; read-out: hTHP-1 IC50 (Average IC50 of compounds in hTHP-1 assay).
Regarding `CN(C(=O)N=S(N)(=O)c1cnc(C(C)(C)O)s1)c1c2c(cc3c1CCC3)CCC2` (centres unmarked) [Example 248, N′-((1,2,3,5,6,7-hexahydro-s-indacen-4-yl)(methyl)carbamoyl)-2-(2-hydroxypropan-2-yl) thiazole-5-sulfonimidamide], the 50% inhibitory concentration (IC50) was in the range of 5 to 30 µM.

Staying with this experiment, now noted: hTHP-1 assay containing 2% fetal bovine serum; average; given as bound; read-out: hTHP-1 IC50 (Average IC50 of compounds in hTHP-1 assay).
For `CNS(=O)(=NC(=O)Nc1c2c(cc3c1CCC3)CCC2)c1ccc(CN(C)C)cc1` (single isomer, unassigned) [Example 384, (S) or (R)-4-((dimethylamino)methyl)-N′-((1,2,3,5,6,7-hexahydro-s-indacen-4-yl)carbamoyl)-N-methylbenzene-sulfonimidamide], the IC50 was more than 30 µM.
